Calls of active or inactive are those of the source. The calls are words filed in the database; no cut-off is given here.
Columns and labels:
[1] = biological target: Acetylcholinesterase (Electrophorus electricus) (UniProt O42275); experiment: Inhibition of electric eel AChE at 200 uM using acetylthiocholine iodide as substrate measured every minute for fifteen minutes by Ellman's method
Acetylcholinesterase = Acetylcholinesterase (Electrophorus electricus, UniProt O42275); experiment: Inhibition of electric eel AChE using acetylthiocholine iodide as substrate measured every minute for fifteen minutes by Ellman's method
Sequence of Acetylcholinesterase (O42275 whole entry): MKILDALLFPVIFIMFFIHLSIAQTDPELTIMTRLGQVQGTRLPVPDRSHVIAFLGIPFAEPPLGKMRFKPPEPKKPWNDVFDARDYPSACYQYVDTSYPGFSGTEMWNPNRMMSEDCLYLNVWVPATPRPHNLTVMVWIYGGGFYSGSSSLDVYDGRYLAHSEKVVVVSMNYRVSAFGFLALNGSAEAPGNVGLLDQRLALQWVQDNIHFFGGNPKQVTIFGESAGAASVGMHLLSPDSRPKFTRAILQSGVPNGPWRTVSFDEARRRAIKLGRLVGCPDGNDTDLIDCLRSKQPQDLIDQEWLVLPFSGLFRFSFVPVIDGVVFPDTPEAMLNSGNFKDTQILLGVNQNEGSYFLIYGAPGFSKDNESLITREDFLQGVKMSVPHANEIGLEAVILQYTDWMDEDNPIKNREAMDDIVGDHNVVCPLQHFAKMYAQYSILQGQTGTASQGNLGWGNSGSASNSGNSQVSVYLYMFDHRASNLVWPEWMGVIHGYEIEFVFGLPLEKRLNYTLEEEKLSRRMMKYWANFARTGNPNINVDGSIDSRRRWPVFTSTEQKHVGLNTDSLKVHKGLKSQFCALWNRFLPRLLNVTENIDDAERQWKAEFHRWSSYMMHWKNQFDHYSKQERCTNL

Sequence of Acetylcholinesterase (Electrophorus electricus) (O42275 24-633 limits assumed): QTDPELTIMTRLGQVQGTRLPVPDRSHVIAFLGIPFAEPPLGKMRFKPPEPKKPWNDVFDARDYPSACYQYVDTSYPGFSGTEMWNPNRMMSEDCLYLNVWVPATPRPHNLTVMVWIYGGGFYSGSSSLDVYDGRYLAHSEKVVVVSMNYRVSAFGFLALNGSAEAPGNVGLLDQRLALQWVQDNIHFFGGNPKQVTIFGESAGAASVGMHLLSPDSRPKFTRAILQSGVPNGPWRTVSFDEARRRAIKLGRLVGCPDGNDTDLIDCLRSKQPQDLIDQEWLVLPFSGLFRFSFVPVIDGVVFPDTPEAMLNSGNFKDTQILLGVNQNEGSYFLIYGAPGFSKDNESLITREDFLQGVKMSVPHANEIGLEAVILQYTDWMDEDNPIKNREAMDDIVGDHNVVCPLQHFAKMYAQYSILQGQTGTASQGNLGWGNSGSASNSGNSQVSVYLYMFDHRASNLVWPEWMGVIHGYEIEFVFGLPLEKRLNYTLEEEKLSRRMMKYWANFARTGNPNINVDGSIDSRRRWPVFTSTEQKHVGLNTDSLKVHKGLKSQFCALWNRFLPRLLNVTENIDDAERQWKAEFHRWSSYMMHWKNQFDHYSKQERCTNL

| SMILES | inhibition [1] | IC50 (Acetylcholinesterase) [µM] |
| --- | --- | --- |
| COc1cc([C@@H]2[C@H](O)CC=C3CCN(C)[C@H]32)cc(OC)c1OC | inactive | – |
| CNc1ccc(COC)cc1-c1cc2c(cc1CO)OCO2 | – | 8.82 |
| CO[C@H]1C=C[C@@]2(c3ccc(O)cc3)CCN[C@H]2C1 | inactive | – |
